# Data taken from PMC8820799, “Angiogenesis and anti-leukaemia activity of novel indole derivatives as potent colchicine binding site inhibitors” (Journal of Enzyme Inhibition and Medicinal Chemistry, 2022).
# Where two headings read alike, the source gives them in different places.
# Columns and labels:
# [1] = tested on: HUVEC; assay: Toxicity on HUVEC; format: cell-based, human
# [2] = tested on: HL60; assay: CCK-8 assay, HL60; format: cell-based; conditions: Homo sapiens, HL-60; leukaemia, APL; CCK-8, 72 h
# Experimental: (§1) Cells were seeded in 96-well plates at a density of 8 × 10^3 per well and exposed to different concentrations of compounds for 72 h. Subsequently, 10 µL CCK8 solution was added to each well and co-incubated for another 3–4 h at 37 °C. The absorbance was determined at 450 nm. Data was calculated with GraphPad Prism5 software.[32]
# [3] = tested on: transgenic zebrafish (FLK-1:EGFP); assay: Zebrafish angiogenesis assay (ISVs); format: in vivo; conditions: for IC50: transgenic zebrafish, triplicate, mean ± SD, read-out: Zebrafish (antiangiogenic activity IC50)
# Experimental: The transgenic flk: enhanced GFP zebrafish embryos were generated by pair-wise mating, collected and sorted into the 6-well plate (n = 30 per well) with 1 ml of aquaculture water (0.2 g/L of Instant Ocean Salt in distilled water) and raised at 28 °C. Then the embryos staged at 12 h post fertilisation (hpf) were treated with the indicated concentrations of compounds which were added into embryo water. About 30 embryos were screened for each concentration gradient. At 30hpf, the treated embryos were anaesthetised with 0.02% tricaine in embryo water and photographed. The numbers of ISVs were recorded under confocal microscopy. Results were obtained from three independent determinations and presented as mean ± SD.[38]
# [4] = tested on: K562 cells; assay: Immunofluorescence staining of microtubule network; format: cell-based; conditions: K562, 0.1 uM and 0.3 uM; Figure 4F
# [5] = tested on: HUVEC; assay: Wound healing migration assay; format: cell-based, human; conditions: 0.1, 1 and 10 µM
# [6] = target: T1, tubulin colchicine binding site (Sus scrofa, UniProt P02550+P02554); assay: [3H]colchicine-tubulin binding assay; conditions: compared with the positive control CA-4; Figure 4D
# T1 construct: purchased Cytoskeleton, Inc
# T1 sequence (P02554 whole entry): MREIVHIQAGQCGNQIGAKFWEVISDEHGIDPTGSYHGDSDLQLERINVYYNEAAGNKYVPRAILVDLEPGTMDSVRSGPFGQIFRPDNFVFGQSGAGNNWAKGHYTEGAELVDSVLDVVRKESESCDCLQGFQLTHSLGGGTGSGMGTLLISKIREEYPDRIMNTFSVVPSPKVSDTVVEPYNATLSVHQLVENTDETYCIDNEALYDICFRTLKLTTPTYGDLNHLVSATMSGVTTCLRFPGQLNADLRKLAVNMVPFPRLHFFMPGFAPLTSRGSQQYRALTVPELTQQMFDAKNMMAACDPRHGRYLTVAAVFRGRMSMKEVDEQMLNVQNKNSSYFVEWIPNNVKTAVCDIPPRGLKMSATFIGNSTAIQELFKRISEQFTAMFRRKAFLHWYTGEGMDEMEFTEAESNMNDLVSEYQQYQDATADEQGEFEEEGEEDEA
# T1 sequence (P02550 whole entry): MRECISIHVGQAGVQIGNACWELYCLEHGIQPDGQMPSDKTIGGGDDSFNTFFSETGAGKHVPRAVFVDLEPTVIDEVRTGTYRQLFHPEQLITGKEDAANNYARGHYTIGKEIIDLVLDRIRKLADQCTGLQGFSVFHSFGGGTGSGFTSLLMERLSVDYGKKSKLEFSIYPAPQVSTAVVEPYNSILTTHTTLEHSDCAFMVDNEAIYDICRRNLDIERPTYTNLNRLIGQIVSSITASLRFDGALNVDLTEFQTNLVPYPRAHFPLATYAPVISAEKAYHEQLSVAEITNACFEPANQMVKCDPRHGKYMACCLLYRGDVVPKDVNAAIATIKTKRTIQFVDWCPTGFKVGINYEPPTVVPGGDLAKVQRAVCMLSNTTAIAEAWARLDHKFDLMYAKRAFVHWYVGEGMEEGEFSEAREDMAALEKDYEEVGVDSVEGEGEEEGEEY
# Experimental: One micromolar radiolabeled colchicine [ring C, Methoxy-3H] (Perkin-Elmer), 1% DMSO and various concentrations of test compounds in 50 µL G-PEM buffer containing 80 mmol/L PIPES (pH 6.8), 1 mmol/L EGTA, 1 mmol/L MgCl2 and 1 mmol/L GTP, and 5% glycerol were incu-bated with […] (> 99% pure; Cytoskeleton, Inc.; 0.2 mg/mL) at 37 °C for 60 min. The binding solutions were filtered through a stack of 2 DEAE-cellulose filters and washed twice. The radioactivity in the […] was determined by liquid scintillation spectrometry (Perkin-Elmer Wallac). Nonlinear regression was used to analyse the data using GraphPad Prism.
# [7] = In vitro metabolic stability, human liver microsomes; format: in vitro ADME; conditions: 0.4 mg/mL protein
# Experimental: The metabolic stability assay was performed by incubating the test compound in mouse or human liver microsomes (XenoTech, lot no. 1510256) at 37 °C and a protein concentration of 0.4 mg/mL. Microsomal incubations were performed at a substrate concentration of 0.5 µM. Data analysis. Species scaling factors were used to convert the in vitro CLint(mL/min/mg) to an in vivo CLint(mL/min/kg).
# [8] = target: T2, Tubulin isolated from porcine brain tissue (Sus scrofa, UniProt P02550+P02554); assay: Tubulin polymerisation assay; format: biochemical; conditions: triplicate, mean ± SD; read-out: Tubulin (tubulin inhibitory polymerisation IC50)
# T2 construct: purchased Cytoskeleton (Denver, CO), via Beyotime, China; host or cells: porcine brain tissue
# T2 sequence (P02554 whole entry): as the sequence (P02554 whole entry) above
# T2 sequence (P02550 whole entry): as the sequence (P02550 whole entry) above
# Experimental: Tubulin polymerisation was determined with the tubulin polymerisation assay kit (Cytoskeleton, Denver, CO which was purchased from Cytoskeleton, Beyotime, China. Tubulin isolated from porcine brain tissue was used in this commercial kit.) It is based on the principal that light is scattered by microtubules to an extent that is proportional to the concentration of the microtubule polymer. Compounds that interact with tubulin will alter the polymerisation of tubulin, and this can be detected using a spectrophotometer. Tubulin polymerisation dynamics was monitored through measuring the change of absorbance at 340 nm every 2 min for 30 min at 37 °C on a spectrophotometer.
# [9] = tested on: K562; assay: CCK-8 assay, K562; format: cell-based; conditions: Homo sapiens, leukaemia, CML, CCK-8, 72 h
# Experimental: as §1
smiles,measurement,setting,value
"COc1cc(C(=O)/C=C/c2cn(S(=O)(=O)c3ccccc3)c3ccccc23)cc(OC)c1OC [Compound 29e, (E)-3–(1-(Phenylsulfonyl)-1H-indol-3-yl)-1–(3,4,5-trimethoxyphenyl)prop-2-en-1-one]",IC50,"[1]; Homo sapiens, HUVEC",58.6 µM
same,toxicity on HUVEC,[1]; at the concentration of 10 µM,did not cause any toxicity on HUVEC
same,IC50,[2],0.18 ± 0.002 µM
same,Formation of intersegmental vessels (ISVs) in zebrafish embryos,[3]; 2.0 µM,efficiently blocked the formation of intersegmental vessels
same,Number and length of ISVs in zebrafish embryos,[3]; 6.0 µM,the number and length of ISVs completely decreased
same,IC50,[3]; Danio rerio,3.6 µM
same,IC50,[3],3.4 ± 0.3 µM
same,Effect on cellular microtubule network,[4],conspicuous disorder for the microtubule network
same,HUVEC wound closure / migration,[5],markedly decreased the closure of wound scratching
same,Effect on tubulin binding of [3H]colchicine,[6],efficiently bound to the [^3H]colchicine binding domain of tubulin
same,microsomal CLint at 0.5 µM,[7],16 µL/min/mg
same,half-life at 0.5 µM,"[7]; 37 °C, read-out: Degradation half-life Human",35 min
same,IC50,[8],4.8 ± 0.7 µM
same,IC50,[9],0.09 ± 0.001 µM
